Test results from patent US20240208961A1, “EIF4E INHIBITORS AND USES THEREOF” (PIC Therapeutics, Inc., priority 2022, published 2024).
Several values for one entry are separate records, joined by “and”; a condition that tells them apart may be missing. Equal values may be shown once. Read-outs that look alike come from different tables or passages of the source.

Assays:
[1] = Pharmacokinetic studies of certain compounds in female Balb/c mice (Example 5); format: in vivo
How it was run: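 Female Balb/c mice (N=9) were fasted overnight and given compound PO as a suspension in 1% CMC/0.2% Tween 80 or IV in 5% DMSO/5% Solutol HS15/90% saline. Facial-vein plasma was taken from 0.083 to 24 h and assayed by LC-MS. Parameters are non-compartmental, and F was based on AUCINF or AUClast.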

T47D = assay: Cell viability assay, adherent cell line, 5 day Alamar Blue (Example 8): T47D; format: cell-based; conditions: Homo sapiens, 120 h, Breast Cancer Cell Viability
NCIH510A = assay: Cell viability assay, suspension cell line, 5 day Alamar Blue (Example 8): NCIH510A; format: cell-based; conditions: Homo sapiens, NCI-H510A, 120 h, Small Cell Lung Cancer Cell Line
[2] = I-29 IV 1.48 mg/kg, 4 hr, BQL = below quantifiable limit of 3.00 ng/mL
[3] = I-29 IV 1.48 mg/kg, 8 hr, BQL = below quantifiable limit of 3.00 ng/mL
[4] = I-29 IV 1.48 mg/kg, 24 hr, BQL = below quantifiable limit of 3.00 ng/mL
[5] = I-29 PO 23.8 mg/kg, 24 hr, BQL = below quantifiable limit of 3.00 ng/mL
[6] = mouse, plasma, I-29 IV 1.48 mg/kg
[7] = mouse, plasma, I-29 PO 23.8 mg/kg

CC(C)Cc1sc(Nc2ncc(-c3cccs3)cc2C(=O)O)nc1C1CCC(F)(F)CC1 [Compound I-29]
Plasma concentration Individual ([1]; I-29 IV 1.48 mg/kg, 0.083 hr, 1.48 mg/kg): 641 ng/mL and 603 ng/mL
Plasma concentration Individual ([1]; I-29 IV 1.48 mg/kg, 0.25 hr, 1.48 mg/kg): 121 ng/mL and 162 ng/mL and 336 ng/mL
Plasma concentration Individual ([1]; I-29 IV 1.48 mg/kg, 0.5 hr, 1.48 mg/kg): 71.2 ng/mL and 51.0 ng/mL
Plasma concentration Individual ([1]; I-29 IV 1.48 mg/kg, 1 hr, 1.48 mg/kg): 15.9 ng/mL and 81.1 ng/mL and 29.6 ng/mL
Plasma concentration Individual ([1]; I-29 IV 1.48 mg/kg, 2 hr, 1.48 mg/kg): 3.54 ng/mL and 4.97 ng/mL and 7.24 ng/mL
Plasma concentration Individual [1, 2]: BQL
Plasma concentration Mean [1, 2]: BQL
Plasma concentration Individual [1, 3]: BQL
Plasma concentration Mean [1, 3]: BQL
Plasma concentration Individual [1, 4]: BQL
Plasma concentration Mean [1, 4]: BQL
F ([1]; I-29 PO 23.8 mg/kg vs IV 1.48 mg/kg): 67.3%
Plasma concentration Individual ([1]; I-29 PO 23.8 mg/kg, 0.083 hr, 23.8 mg/kg): 39.6 ng/mL and 53.6 ng/mL
Plasma concentration Individual ([1]; I-29 PO 23.8 mg/kg, 0.25 hr, 23.8 mg/kg): 147 ng/mL and 146 ng/mL
Plasma concentration Individual ([1]; I-29 PO 23.8 mg/kg, 0.5 hr, 23.8 mg/kg): 344 ng/mL and 464 ng/mL
Plasma concentration Individual ([1]; I-29 PO 23.8 mg/kg, 1 hr, 23.8 mg/kg): 237 ng/mL and 618 ng/mL and 703 ng/mL
Plasma concentration Individual ([1]; I-29 PO 23.8 mg/kg, 2 hr, 23.8 mg/kg): 620 ng/mL and 640 ng/mL
Plasma concentration Individual ([1]; I-29 PO 23.8 mg/kg, 4 hr, 23.8 mg/kg): 147 ng/mL and 218 ng/mL
Plasma concentration Individual ([1]; I-29 PO 23.8 mg/kg, 8 hr, 23.8 mg/kg): 106 ng/mL and 75.9 ng/mL
Plasma concentration Individual [1, 5]: BQL
Plasma concentration Mean [1, 5]: BQL
concentration at 0.083 hr ([1]; female, Balb/c, mouse, plasma, iv, 1.48 mg/kg, I-29 IV 1.48 mg/kg, 0.083 hr, read-out: Plasma concentration Individual): 558 ng/mL
concentration at 0.083 hr ([1]; female, Balb/c, mouse, plasma, iv, 1.48 mg/kg, I-29 IV 1.48 mg/kg, 0.083 hr, read-out: Plasma concentration Mean): 601 ng/mL
concentration at 0.25 hr ([1]; female, Balb/c, mouse, plasma, iv, 1.48 mg/kg, I-29 IV 1.48 mg/kg, 0.25 hr, read-out: Plasma concentration Mean): 206 ng/mL
concentration at 0.5 h ([1]; female, Balb/c, mouse, plasma, iv, 1.48 mg/kg, I-29 IV 1.48 mg/kg, 0.5 hr, read-out: Plasma concentration Individual): 95.5 ng/mL
concentration at 0.5 h ([1]; female, Balb/c, mouse, plasma, iv, 1.48 mg/kg, I-29 IV 1.48 mg/kg, 0.5 hr, read-out: Plasma concentration Mean): 72.6 ng/mL
concentration at 1 h ([1]; female, Balb/c, mouse, plasma, iv, 1.48 mg/kg, I-29 IV 1.48 mg/kg, 1 hr, read-out: Plasma concentration Mean): 42.2 ng/mL
concentration at 2 hr ([1]; female, Balb/c, mouse, plasma, iv, 1.48 mg/kg, I-29 IV 1.48 mg/kg, 2 hr, read-out: Plasma concentration Mean): 5.25 ng/mL
concentration at 0.083 hr ([1]; female, Balb/c, mouse, plasma, po, 23.8 mg/kg, I-29 PO 23.8 mg/kg, 0.083 hr, read-out: Plasma concentration Individual): 31.6 ng/mL
concentration at 0.083 hr ([1]; female, Balb/c, mouse, plasma, po, 23.8 mg/kg, I-29 PO 23.8 mg/kg, 0.083 hr, read-out: Plasma concentration Mean): 41.6 ng/mL
concentration at 0.25 hr ([1]; female, Balb/c, mouse, plasma, po, 23.8 mg/kg, I-29 PO 23.8 mg/kg, 0.25 hr, read-out: Plasma concentration Individual): 160 ng/mL
concentration at 0.25 hr ([1]; female, Balb/c, mouse, plasma, po, 23.8 mg/kg, I-29 PO 23.8 mg/kg, 0.25 hr, read-out: Plasma concentration Mean): 151 ng/mL
concentration at 0.5 hr ([1]; female, Balb/c, mouse, plasma, po, 23.8 mg/kg, I-29 PO 23.8 mg/kg, 0.5 hr, read-out: Plasma concentration Individual): 305 ng/mL
concentration at 0.5 hr ([1]; female, Balb/c, mouse, plasma, po, 23.8 mg/kg, I-29 PO 23.8 mg/kg, 0.5 hr, read-out: Plasma concentration Mean): 371 ng/mL
concentration at 1 hr ([1]; female, Balb/c, mouse, plasma, po, 23.8 mg/kg, I-29 PO 23.8 mg/kg, 1 hr, read-out: Plasma concentration Mean): 519 ng/mL
concentration at 2 hr ([1]; female, Balb/c, mouse, plasma, po, 23.8 mg/kg, I-29 PO 23.8 mg/kg, 2 hr, read-out: Plasma concentration Individual): 554 ng/mL
concentration at 2 hr ([1]; female, Balb/c, mouse, plasma, po, 23.8 mg/kg, I-29 PO 23.8 mg/kg, 2 hr, read-out: Plasma concentration Mean): 605 ng/mL
concentration at 4 hr ([1]; female, Balb/c, mouse, plasma, po, 23.8 mg/kg, I-29 PO 23.8 mg/kg, 4 hr, read-out: Plasma concentration Individual): 187 ng/mL
concentration at 4 hr ([1]; female, Balb/c, mouse, plasma, po, 23.8 mg/kg, I-29 PO 23.8 mg/kg, 4 hr, read-out: Plasma concentration Mean): 184 ng/mL
concentration at 8 hr ([1]; female, Balb/c, mouse, plasma, po, 23.8 mg/kg, I-29 PO 23.8 mg/kg, 8 hr, read-out: Plasma concentration Individual): 57.1 ng/mL
concentration at 8 hr ([1]; female, Balb/c, mouse, plasma, po, 23.8 mg/kg, I-29 PO 23.8 mg/kg, 8 hr, read-out: Plasma concentration Mean): 79.7 ng/mL
AUC(0-inf) [1, 6]: 225 ng·h/mL
AUC(0-t) [1, 6]: 222 ng·h/mL
C0 [1, 6]: 1020 ng/mL
MRT inf [1, 6]: 0.33 h
MRT last [1, 6]: 0.304 h
clearance [1, 6]: 110 mL/min/kg
half-life [1, 6]: 0.352 h
Vd ([1]; mouse, plasma, I-29 IV 1.48 mg/kg, read-out: Vss): 2.18 L/kg
AUC(0-inf) [1, 7]: 2430 ng·h/mL
AUC(0-t) [1, 7]: 2180 ng·h/mL
Cmax [1, 7]: 605 ng/mL
MRT inf [1, 7]: 3.51 h
MRT last [1, 7]: 2.64 h
Tmax [1, 7]: 2 h
half-life [1, 7]: 2.17 h
IC50 (T47D): 1 to 8 µM
IC50 (NCIH510A): ≤ 1 µM
